Measurements: ChEMBL document CHEMBL1131152, “In vitro and in vivo activities of oligodeoxynucleotide-based thrombin inhibitors containing neutral formacetal linkages” (J Med Chem, 1998)

Target: Prothrombin (Homo sapiens) (UniProt P00734)
Assay: Relative prothrombin time was determined as the activity of the test ODN (oligodeoxynucleotide) relative to that of GS-522

Relative PT | Structure (SMILES)
0.9 | Cc1cn([C@H]2C[C@H](OP(=O)(O)OC[C@H]3O[C@@H](n4cnc5c(=O)nc(N)[nH]c54)C[C@@H]3OP(=O)(O)OC[C@H]3O[C@@H](n4cnc5c(=O)[nH]c(=N)[nH]c54)C[C@@H]3OP(=O)(O)OC[C@H]3O[C@@H](n4cc(C)c(=O)[nH]c4=O)C[C@@H]3OP(=O)(O)OC[C@H]3O[C@@H](n4cnc5c(=O)nc(N)[nH]c54)C[C@@H]3OP(=O)(O)OC[C@H]3O[C@@H](n4cc(C)c(=O)[nH]c4=O)C[C@@H]3OP(=O)(O)OC[C@H]3O[C@@H](n4cnc5c(=O)nc(N)[nH]c54)C[C@@H]3OP(=O)(O)OC[C@H]3O[C@@H](n4cnc5c(=O)[nH]c(=N)[nH]c54)C[C@@H]3OP(=O)(O)OC[C@H]3O[C@@H](n4cc(C)c(=O)[nH]c4=O)C[C@@H]3OP(=O)(O)OC[C@H]3O[C@@H](n4cc(C)c(=O)[nH]c4=O)C[C@@H]3OP(=O)(O)OC[C@H]3O[C@@H](n4cnc5c(=O)[nH]c(=N)[nH]c54)C[C@@H]3OP(=O)(O)OC[C@H]3O[C@@H](n4cnc5c(=O)nc(N)[nH]c54)C[C@@H]3O)[C@@H](COP(=O)(O)O[C@H]3C[C@H](n4cc(C)c(=O)[nH]c4=O)O[C@@H]3COP(=O)(O)O[C@H]3C[C@H](n4cnc5c(=O)[nH]c(=N)[nH]c54)O[C@@H]3COCO[C@H]3C[C@H](n4cnc5c(=O)nc(N)[nH]c54)O[C@@H]3COP(=O)(O)O)O2)c(=O)[nH]c1=O
0.8 | Cc1cn([C@H]2C[C@H](OCOC[C@H]3O[C@@H](n4cc(C)c(=O)[nH]c4=O)C[C@@H]3OP(=O)(O)OC[C@H]3O[C@@H](n4cnc5c(=O)nc(N)[nH]c54)C[C@@H]3OP(=O)(O)OC[C@H]3O[C@@H](n4cnc5c(=O)[nH]c(=N)[nH]c54)C[C@@H]3OCOC[C@H]3O[C@@H](n4cc(C)c(=O)[nH]c4=O)C[C@@H]3OP(=O)(O)OC[C@H]3O[C@@H](n4cnc5c(=O)nc(N)[nH]c54)C[C@@H]3OCOC[C@H]3O[C@@H](n4cc(C)c(=O)[nH]c4=O)C[C@@H]3OP(=O)(O)OC[C@H]3O[C@@H](n4cnc5c(=O)nc(N)[nH]c54)C[C@@H]3OP(=O)(O)OC[C@H]3O[C@@H](n4cnc5c(=O)[nH]c(=N)[nH]c54)C[C@@H]3OP(=O)(O)OC[C@H]3O[C@@H](n4cc(C)c(=O)[nH]c4=O)C[C@@H]3OCOC[C@H]3O[C@@H](n4cc(C)c(=O)[nH]c4=O)C[C@@H]3OP(=O)(O)OC[C@H]3O[C@@H](n4cnc5c(=O)[nH]c(=N)[nH]c54)C[C@@H]3OP(=O)(O)OC[C@H]3O[C@@H](n4cnc5c(=O)nc(N)[nH]c54)C[C@@H]3O)[C@@H](COP(=O)(O)O[C@H]3C[C@H](n4cnc5c(=O)[nH]c(=N)[nH]c54)O[C@@H]3COP(=O)(O)O[C@H]3C[C@H](n4cnc5c(=O)nc(N)[nH]c54)O[C@@H]3COP(=O)(O)O)O2)c(=O)[nH]c1=O
0.8 | Cc1cn([C@H]2C[C@H](OP(=O)(O)OC[C@H]3O[C@@H](n4cnc5c(=O)nc(N)[nH]c54)C[C@@H]3OCOC[C@H]3O[C@@H](n4cnc5c(=O)[nH]c(=N)[nH]c54)C[C@@H]3OP(=O)(O)OC[C@H]3O[C@@H](n4cc(C)c(=O)[nH]c4=O)C[C@@H]3OP(=O)(O)OC[C@H]3O[C@@H](n4cnc5c(=O)nc(N)[nH]c54)C[C@@H]3OP(=O)(O)OC[C@H]3O[C@@H](n4cc(C)c(=O)[nH]c4=O)C[C@@H]3OP(=O)(O)OC[C@H]3O[C@@H](n4cnc5c(=O)nc(N)[nH]c54)C[C@@H]3OP(=O)(O)OC[C@H]3O[C@@H](n4cnc5c(=O)[nH]c(=N)[nH]c54)C[C@@H]3OP(=O)(O)OC[C@H]3O[C@@H](n4cc(C)c(=O)[nH]c4=O)C[C@@H]3OP(=O)(O)OC[C@H]3O[C@@H](n4cc(C)c(=O)[nH]c4=O)C[C@@H]3OP(=O)(O)OC[C@H]3O[C@@H](n4cnc5c(=O)[nH]c(=N)[nH]c54)C[C@@H]3OP(=O)(O)OC[C@H]3O[C@@H](n4cnc5c(=O)nc(N)[nH]c54)C[C@@H]3O)[C@@H](COP(=O)(O)O[C@H]3C[C@H](n4cc(C)c(=O)[nH]c4=O)O[C@@H]3COP(=O)(O)O[C@H]3C[C@H](n4cnc5c(=O)[nH]c(=N)[nH]c54)O[C@@H]3COP(=O)(O)O[C@H]3C[C@H](n4cnc5c(=O)nc(N)[nH]c54)O[C@@H]3COP(=O)(O)O)O2)c(=O)[nH]c1=O
